In PMC12655351, “Synthesis and Anticancer Activity Evaluation of New 5-((5-Nitrofuran-2-yl)allylidene)-2-thioxo-4-thiazolidinones” (Pharmaceuticals, 2025):

Legend:
MOLT-4 = settings: MOLT-4, 48 h
SR [1] = settings: 48 h
HCT-116 = settings: HCT-116, 48 h
HT29 = settings: HT29, 48 h
OVCAR-3 [2] = settings: for growth GP: OVCAR-3, 10 μM, 48 h; for TGI: OVCAR-3, 48 h
A498 [3] = settings: for TGI: A498, 48 h
SN12C [4] = settings: SN12C, 48 h
TK-10 = settings: TK-10, 48 h
Leukemia = Leukemia subpanel
CNS cancer [5] = settings: CNS cancer subpanel
Melanoma = Melanoma subpanel
Breast cancer = Breast cancer subpanel
[6] = test system: panel of 60 cancer cell lines; settings: for Positive cytostatic effect (ratio of cell lines with GP from 0 to 50 to total number) / Mean growth: 10 μM, 48 h; for Mean growth: one dose; for MG_MID TGI: full panel (last line of Table S2)
K-562 = assay: cells; settings: Homo sapiens, K562, 48 h; for GI50: K-562, 48 h; for CC50: read-out: LC50
SR [7] = assay: cells; settings: Homo sapiens, 48 h
NCI-H23 = assay: cells; settings: Homo sapiens, NCI-H23, 48 h; for CC50: read-out: LC50, NCI-H23, 48 h
LOX IMVI = assay: cells; settings: Homo sapiens, 48 h; for CC50: read-out: LC50, LOX IMVI, 48 h
SK-MEL-28 = assay: cells; settings: Homo sapiens, SK-MEL-28, 48 h; for CC50: read-out: LC50, SK-MEL-28, 48 h
UACC-257 = assay: cells; settings: Homo sapiens, UACC-257, 48 h; for CC50: read-out: LC50, UACC-257, 48 h
OVCAR-3 [8] = assay: cells; settings: Homo sapiens, OVCAR-3, 48 h
NCI/ADR-RES = assay: cells; settings: Homo sapiens, 48 h; for CC50: read-out: LC50, NCI/ADR-RES, 48 h
786-0 = assay: cells; settings: Homo sapiens, 786-0, 48 h
A498 [9] = assay: cells; settings: Homo sapiens, A498, 48 h
SN12C [10] = assay: cells; settings: Homo sapiens, 48 h; for CC50: read-out: LC50, SN12C, 48 h
CNS cancer [11] = assay: cells; settings: Homo sapiens; for GI50: read-out: MG_MID GI50; for CC50: read-out: MG_MID LC50
Renal Cancer = assay: cells; settings: Homo sapiens; for GI50: read-out: MG_MID GI50; for CC50: read-out: MG_MID LC50
Prostate Cancer = assay: cells; settings: Homo sapiens, read-out: MG_MID GI50
[12] = test system: panel of 60 cancer cell lines; assay: cells; settings: Homo sapiens, read-out: MG_MID GI50
A549/ATCC = assay: NCI-60 SRB screen; settings: for TGI: 48 h; for GI50: Homo sapiens, A549, 48 h
EKVX = assay: NCI-60 SRB screen; settings: 48 h; for GI50 / CC50: Homo sapiens; for CC50: read-out: LC50, EKVX, 48 h
HOP-62 = assay: NCI-60 SRB screen; settings: HOP-62, 48 h; for GI50: Homo sapiens
HCT-15 = assay: NCI-60 SRB screen; settings: HCT-15, 48 h
KM12 = assay: NCI-60 SRB screen; settings: KM12, 48 h
SW-620 = assay: NCI-60 SRB screen; settings: SW-620, 48 h
SF-295 = assay: NCI-60 SRB screen; settings: SF-295, 48 h; for GI50 / CC50: Homo sapiens; for CC50: read-out: LC50, SF-295, 48 h
U251 = assay: NCI-60 SRB screen; settings: for GI50 / CC50: Homo sapiens, U-251, 48 h; for GI50 / TGI: U251, 48 h; for CC50: read-out: LC50, U251, 48 h
IGROV1 = assay: NCI-60 SRB screen; settings: for GI50 / CC50: Homo sapiens, IGROV-1, 48 h; for GI50 / TGI: IGROV1, 48 h; for CC50: read-out: LC50, IGROV1, 48 h
MCF7 = assay: NCI-60 SRB screen; settings: MCF7, 48 h; for GI50: Homo sapiens
MDA-MB-468 = assay: NCI-60 SRB screen; settings: MDA-MB-468, 48 h; for GI50 / CC50: Homo sapiens; for CC50: read-out: LC50, MDA-MB-468, 48 h

With O=C(O)CCN1C(=O)/C(=C/C=C/c2ccc([N+](=O)[O-])o2)SC1=S [12b, 3-((Z)-5-((E)-3-(5-Nitrofuran-2-yl)allylidene)-4-oxo-2-thioxothiazolidin-3-yl)propanoic acid] the TGI (MOLT-4) was 2560 nM, the TGI (SR [1]) was 1150 nM and the TGI (HCT-116) was 3570 nM. The TGI (HT29) was 12500 nM, the “growth GP” value (OVCAR-3 [2]) was -96.70% and the TGI (OVCAR-3 [2]) was 3010 nM. The “growth GP” value (A498 [3]; A498, 10 μM, 48 h) was -96.94%, the TGI (A498 [3]) was 27400 nM and the “growth GP” value (SN12C [4]; 10 μM) was -95.84%. For the same molecule, the TGI (SN12C [4]) was 2320 nM, the TGI (TK-10) was 3810 nM and the “MG_MID TGI” value (Leukemia) was 2520 nM. The “MG_MID TGI” value (CNS cancer [5]) was 4090 nM, the “MG_MID TGI” value (Melanoma) was 2600 nM and the “MG_MID TGI” value (Breast cancer) was 3640 nM. For the same molecule, the “Positive cytostatic effect (ratio of cell lines with GP from 0 to 50 to total number)” value [6] was 4/55, the Mean growth [6] was -62.05% and the “MG_MID TGI” value [6] was 4690 nM. The GI50 (K-562) was 340 nM, the CC50 (K-562) was > 100000 nM and the GI50 (SR [7]) was 300 nM. The GI50 (NCI-H23) was 1690 nM, the CC50 (NCI-H23) was 6700 nM and the GI50 (LOX IMVI) was 580 nM. The CC50 (LOX IMVI) was 4340 nM, the GI50 (SK-MEL-28) was 1570 nM and the CC50 (SK-MEL-28) was 5930 nM. The GI50 (UACC-257) was 1810 nM, the CC50 (UACC-257) was 9210 nM and the GI50 (OVCAR-3 [8]) was 1360 nM. For the same molecule, the GI50 (NCI/ADR-RES) was 1210 nM, the CC50 (NCI/ADR-RES) was 24800 nM and the GI50 (786-0) was 1380 nM. It also gave a GI50 (A498 [9]) of 14300 nM, a GI50 (SN12C [10]) of 1070 nM and a CC50 (SN12C [10]) of 5040 nM. For the same molecule, the GI50 (CNS cancer [11]) was 1620 nM, the CC50 (CNS cancer [11]) was 12300 nM and the GI50 (Renal Cancer) was 3050 nM. For the same molecule, the CC50 (Renal Cancer) was 11900 nM, the GI50 (Prostate Cancer) was 2550 nM and the GI50 [12] was 1680 nM. For the same molecule, the TGI (A549/ATCC) was 12400 nM, the GI50 (A549/ATCC) was 3210 nM and the TGI (EKVX) was 9260 nM. For the same molecule, the GI50 (EKVX) was 2690 nM, the CC50 (EKVX) was 31100 nM and the TGI (HOP-62) was 3570 nM. The GI50 (HOP-62) was 1610 nM, the TGI (HCT-15) was 3500 nM and the TGI (KM12) was 3370 nM. It also gave a TGI (SW-620) of 19800 nM, a GI50 (SF-295) of 2170 nM and a CC50 (SF-295) of 16300 nM. It also gave a TGI (SF-295) of 5210 nM, a GI50 (U251) of 1070 nM and a CC50 (U251) of 5530 nM. For the same molecule, the TGI (U251) was 2430 nM, the GI50 (IGROV1) was 1430 nM and the CC50 (IGROV1) was 5700 nM. The TGI (IGROV1) was 2860 nM, the GI50 (MCF7) was 460 nM and the TGI (MCF7) was 2100 nM. The GI50 (MDA-MB-468) was 660 nM, the CC50 (MDA-MB-468) was 5710 nM and the TGI (MDA-MB-468) was 2140 nM.
CC(C)C(C(=O)O)N1C(=O)/C(=C/C=C/c2ccc([N+](=O)[O-])o2)SC1=S (stereo not drawn) [5b, 3-Methyl-2-((Z)-5-((E)-3-(5-nitrofuran-2-yl)allylidene)-4-oxo-2-thioxothiazolidin-3-yl)butanoic acid] gave a TGI (MOLT-4) of 10700 nM, a TGI (SR [1]) of 1890 nM and a TGI (HCT-116) of 1130 nM. For the same molecule, the TGI (HT29) was 2900 nM, the “growth GP” value (OVCAR-3 [2]) was -95.93% and the TGI (OVCAR-3 [2]) was 2770 nM. It also gave a TGI (A498 [3]) of 4810 nM, a TGI (SN12C [4]) of 2150 nM and a TGI (TK-10) of 4030 nM. For the same molecule, the “MG_MID TGI” value (Leukemia) was 3770 nM, the “MG_MID TGI” value (CNS cancer [5]) was 2790 nM and the “MG_MID TGI” value (Melanoma) was 2680 nM. For the same molecule, the “MG_MID TGI” value (Breast cancer) was 3460 nM, the “Positive cytostatic effect (ratio of cell lines with GP from 0 to 50 to total number)” value [6] was 2/55 and the Mean growth [6] was -73.80%. For the same molecule, the “MG_MID TGI” value [6] was 3530 nM, the GI50 (K-562) was 450 nM and the CC50 (K-562) was > 100000 nM. The GI50 (SR [7]) was 320 nM, the CC50 (SR [7]; read-out: LC50) was > 100000 nM and the GI50 (NCI-H23) was 1750 nM. For the same molecule, the CC50 (NCI-H23) was 6630 nM, the GI50 (LOX IMVI) was 1160 nM and the CC50 (LOX IMVI) was 5330 nM. For the same molecule, the GI50 (SK-MEL-28) was 1460 nM, the CC50 (SK-MEL-28) was 5480 nM and the GI50 (UACC-257) was 1570 nM. For the same molecule, the CC50 (UACC-257) was 6800 nM, the GI50 (OVCAR-3 [8]) was 1340 nM and the GI50 (NCI/ADR-RES) was 1470 nM. It also gave a CC50 (NCI/ADR-RES) of 17500 nM, a GI50 (786-0) of 1060 nM and a GI50 (A498 [9]) of 2690 nM. It also gave a GI50 (SN12C [10]) of 790 nM, a CC50 (SN12C [10]) of 4960 nM and a GI50 (CNS cancer [11]) of 1280 nM. The CC50 (CNS cancer [11]) was 5930 nM, the GI50 (Renal Cancer) was 1540 nM and the CC50 (Renal Cancer) was 7720 nM. For the same molecule, the GI50 (Prostate Cancer) was 1620 nM, the GI50 [12] was 1400 nM and the TGI (A549/ATCC) was 3830 nM. It also gave a GI50 (A549/ATCC) of 1860 nM, a TGI (EKVX) of 4800 nM and a GI50 (EKVX) of 2010 nM. It also gave a CC50 (EKVX) of 13900 nM, a TGI (HOP-62) of 3080 nM and a GI50 (HOP-62) of 1350 nM. It also gave a TGI (HCT-15) of 2180 nM, a GI50 (HCT-15; Homo sapiens) of 730 nM and a CC50 (HCT-15; Homo sapiens, read-out: LC50, HCT-15, 48 h) of 5320 nM. The GI50 (KM12; Homo sapiens) was 1170 nM, the TGI (KM12) was 2570 nM and the GI50 (SW-620; Homo sapiens) was 590 nM. The TGI (SW-620) was 2550 nM, the GI50 (SF-295) was 1830 nM and the CC50 (SF-295) was 6690 nM. The TGI (SF-295) was 3490 nM, the GI50 (U251) was 500 nM and the CC50 (U251) was 4640 nM. The TGI (U251) was 1790 nM, the GI50 (IGROV1) was 1780 nM and the CC50 (IGROV1) was 6570 nM. For the same molecule, the TGI (IGROV1) was 3420 nM, the GI50 (MCF7) was 430 nM and the TGI (MCF7) was 1830 nM. The GI50 (MDA-MB-468) was 1370 nM, the CC50 (MDA-MB-468) was 6160 nM and the TGI (MDA-MB-468) was 2900 nM.
